Assay results from publication PMC9927415, “Tyrosine Kinase Inhibitors Display Potent Activity against Cryptosporidium parvum” (Microbiology Spectrum, 2022).

Experiments:
Experiment in all cases: KINOMEscan competitive binding, whole panel
[1] = molecular target: T1, panel of 203 kinases (Homo sapiens, UniProt Q8N752); settings: 10 µM, n=1; kinase CSNK1A1L; read-out: Percent inhibition CSNK1A1L
T1 construct: purchased DiscoverX (KINOMEscan)
T1 sequence (Q8N752 1-337): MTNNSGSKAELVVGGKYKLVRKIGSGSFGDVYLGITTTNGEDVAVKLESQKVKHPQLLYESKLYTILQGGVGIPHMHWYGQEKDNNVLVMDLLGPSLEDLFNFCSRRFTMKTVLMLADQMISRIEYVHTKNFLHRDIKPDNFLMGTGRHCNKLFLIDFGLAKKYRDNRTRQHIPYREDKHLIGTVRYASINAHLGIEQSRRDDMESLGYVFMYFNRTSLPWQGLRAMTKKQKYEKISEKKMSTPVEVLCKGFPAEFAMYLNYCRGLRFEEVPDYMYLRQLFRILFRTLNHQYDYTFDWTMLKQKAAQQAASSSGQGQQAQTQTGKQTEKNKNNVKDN
Outline: (§1)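 Kinases expressed as T7 bacteriophage fusions; test compound competes with an immobilized ATP-site probe ligand. Kinase still bound to the solid support was quantified and expressed as percentage inhibition.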

[2] = molecular target: T2, panel of 203 kinases (Homo sapiens, UniProt P35916); settings: 10 µM, n=1; kinase FLT4; read-out: Percent inhibition FLT4
T2 construct: purchased DiscoverX (KINOMEscan)
Outline: as §1

[3] = molecular target: T3, panel of 203 kinases (Homo sapiens, UniProt Q13131); settings: 10 µM, n=1; kinase AMPK-alpha1; read-out: Percent inhibition AMPK-alpha1
T3 construct: purchased DiscoverX (KINOMEscan)
Outline: as §1

[4] = molecular target: T4, panel of 203 kinases (Homo sapiens, UniProt P29317); settings: 10 µM, n=1; kinase EPHA2; read-out: Percent inhibition EPHA2
T4 construct: purchased DiscoverX (KINOMEscan)
Outline: as §1

[5] = molecular target: T5, panel of 203 kinases (Homo sapiens, UniProt P31749); settings: 10 µM, n=1; kinase AKT1; read-out: Percent inhibition AKT1
T5 construct: purchased DiscoverX (KINOMEscan)
Outline: as §1

[6] = molecular target: T6, panel of 203 kinases (Homo sapiens, UniProt Q09013); settings: 10 µM, n=1; kinase DMPK; read-out: Percent inhibition DMPK
T6 construct: purchased DiscoverX (KINOMEscan)
T6 sequence (Q09013 1-629): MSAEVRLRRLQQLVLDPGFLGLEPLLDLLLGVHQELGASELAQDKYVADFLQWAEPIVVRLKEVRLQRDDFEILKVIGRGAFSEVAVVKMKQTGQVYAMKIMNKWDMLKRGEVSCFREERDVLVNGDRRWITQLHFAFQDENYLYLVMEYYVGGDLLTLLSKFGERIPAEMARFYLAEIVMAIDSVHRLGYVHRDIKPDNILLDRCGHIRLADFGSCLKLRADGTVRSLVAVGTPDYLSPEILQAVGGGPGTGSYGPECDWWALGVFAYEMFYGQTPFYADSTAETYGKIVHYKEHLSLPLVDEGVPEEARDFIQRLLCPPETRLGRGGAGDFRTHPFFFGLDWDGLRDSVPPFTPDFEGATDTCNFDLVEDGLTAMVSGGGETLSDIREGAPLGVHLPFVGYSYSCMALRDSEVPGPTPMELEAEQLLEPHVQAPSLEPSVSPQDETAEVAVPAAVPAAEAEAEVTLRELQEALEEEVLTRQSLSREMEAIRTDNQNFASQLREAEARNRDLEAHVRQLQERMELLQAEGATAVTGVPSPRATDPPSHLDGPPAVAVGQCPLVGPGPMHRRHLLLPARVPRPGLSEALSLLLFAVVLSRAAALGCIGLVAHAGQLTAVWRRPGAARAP
Outline: as §1

[7] = molecular target: T7, panel of 203 kinases (Homo sapiens, UniProt P06239); settings: 10 µM, n=1; kinase LCK; read-out: Percent inhibition LCK
T7 construct: purchased DiscoverX (KINOMEscan)
Outline: as §1

[8] = molecular target: T8, panel of 203 kinases (Homo sapiens, UniProt P53667); settings: 10 µM, n=1; kinase LIMK1; read-out: Percent inhibition LIMK1
T8 construct: purchased DiscoverX (KINOMEscan)
Outline: as §1

[9] = molecular target: T9, panel of 203 kinases (Homo sapiens, UniProt P37023); settings: 10 µM, n=1; kinase ACVRL1; read-out: Percent inhibition ACVRL1
T9 construct: purchased DiscoverX (KINOMEscan)
Outline: as §1

[10] = molecular target: T10, panel of 203 kinases (Homo sapiens, UniProt P45983); settings: 10 µM, n=1; kinase JNK1; read-out: Percent inhibition JNK1
T10 construct: purchased DiscoverX (KINOMEscan)
Outline: as §1

[11] = molecular target: T11, panel of 203 kinases (Homo sapiens, UniProt Q9UQM7); settings: 10 µM, n=1; kinase CAMK2A; read-out: Percent inhibition CAMK2A
T11 construct: purchased DiscoverX (KINOMEscan)
Outline: as §1

[12] = molecular target: T12, panel of 203 kinases (Homo sapiens, UniProt P54764); settings: 10 µM, n=1; kinase EPHA4; read-out: Percent inhibition EPHA4
T12 construct: purchased DiscoverX (KINOMEscan)
Outline: as §1

[13] = molecular target: T13, panel of 203 kinases (Homo sapiens, UniProt P22607); settings: 10 µM, n=1; kinase FGFR3; read-out: Percent inhibition FGFR3
T13 construct: purchased DiscoverX (KINOMEscan)
Outline: as §1

[14] = molecular target: T14, panel of 203 kinases (Homo sapiens, UniProt Q14012); settings: 10 µM, n=1; kinase CAMK1; read-out: Percent inhibition CAMK1
T14 construct: purchased DiscoverX (KINOMEscan)
Outline: as §1

[15] = molecular target: T15, panel of 203 kinases (Homo sapiens, UniProt Q96RR4); settings: 10 µM, n=1; kinase CAMKK2; read-out: Percent inhibition CAMKK2
T15 construct: purchased DiscoverX (KINOMEscan)
Outline: as §1

[16] = molecular target: T16, panel of 203 kinases (Homo sapiens, UniProt P14616); settings: 10 µM, n=1; kinase INSRR; read-out: Percent inhibition INSRR
T16 construct: purchased DiscoverX (KINOMEscan)
Outline: as §1

[17] = molecular target: T17, panel of 203 kinases (Homo sapiens, UniProt Q8IU85); settings: 10 µM, n=1; kinase CAMK1D; read-out: Percent inhibition CAMK1D
T17 construct: purchased DiscoverX (KINOMEscan)
Outline: as §1

[18] = molecular target: T18, panel of 203 kinases (Homo sapiens, UniProt P51451); settings: 10 µM, n=1; kinase BLK; read-out: Percent inhibition BLK
T18 construct: purchased DiscoverX (KINOMEscan)
Outline: as §1

[19] = molecular target: T19, panel of 203 kinases (Homo sapiens, UniProt Q13557); settings: 10 µM, n=1; kinase CAMK2D; read-out: Percent inhibition CAMK2D
T19 construct: purchased DiscoverX (KINOMEscan)
Outline: as §1

[20] = molecular target: T20, panel of 203 kinases (Homo sapiens, UniProt P16591); settings: 10 µM, n=1; kinase FER; read-out: Percent inhibition FER
T20 construct: purchased DiscoverX (KINOMEscan)
Outline: as §1

T12 sequence (P54764 20-986): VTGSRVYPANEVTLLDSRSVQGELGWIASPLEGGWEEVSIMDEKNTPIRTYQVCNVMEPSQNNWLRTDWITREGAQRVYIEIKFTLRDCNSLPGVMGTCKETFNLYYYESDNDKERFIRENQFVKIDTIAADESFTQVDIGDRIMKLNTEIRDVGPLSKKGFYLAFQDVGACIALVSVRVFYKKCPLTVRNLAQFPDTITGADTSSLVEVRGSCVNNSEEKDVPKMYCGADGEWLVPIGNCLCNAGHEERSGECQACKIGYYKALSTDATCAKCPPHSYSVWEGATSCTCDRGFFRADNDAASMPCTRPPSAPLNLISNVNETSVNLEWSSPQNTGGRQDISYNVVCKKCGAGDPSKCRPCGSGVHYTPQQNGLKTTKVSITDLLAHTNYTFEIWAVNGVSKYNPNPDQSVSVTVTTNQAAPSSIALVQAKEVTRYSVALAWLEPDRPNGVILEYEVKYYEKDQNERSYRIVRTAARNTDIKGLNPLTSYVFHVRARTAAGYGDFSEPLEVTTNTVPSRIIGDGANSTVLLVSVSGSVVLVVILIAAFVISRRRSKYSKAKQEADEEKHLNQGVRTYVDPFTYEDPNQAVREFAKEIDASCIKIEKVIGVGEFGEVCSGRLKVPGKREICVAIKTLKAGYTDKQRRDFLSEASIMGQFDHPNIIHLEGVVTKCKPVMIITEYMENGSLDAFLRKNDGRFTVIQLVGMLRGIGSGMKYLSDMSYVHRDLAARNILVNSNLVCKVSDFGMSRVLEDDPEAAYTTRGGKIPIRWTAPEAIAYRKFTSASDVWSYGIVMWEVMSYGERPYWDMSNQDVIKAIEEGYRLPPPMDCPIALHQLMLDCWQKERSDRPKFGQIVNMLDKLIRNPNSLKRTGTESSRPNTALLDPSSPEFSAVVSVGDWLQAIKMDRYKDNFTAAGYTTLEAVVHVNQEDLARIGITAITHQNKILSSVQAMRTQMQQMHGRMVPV
T19 sequence (Q13557 whole entry): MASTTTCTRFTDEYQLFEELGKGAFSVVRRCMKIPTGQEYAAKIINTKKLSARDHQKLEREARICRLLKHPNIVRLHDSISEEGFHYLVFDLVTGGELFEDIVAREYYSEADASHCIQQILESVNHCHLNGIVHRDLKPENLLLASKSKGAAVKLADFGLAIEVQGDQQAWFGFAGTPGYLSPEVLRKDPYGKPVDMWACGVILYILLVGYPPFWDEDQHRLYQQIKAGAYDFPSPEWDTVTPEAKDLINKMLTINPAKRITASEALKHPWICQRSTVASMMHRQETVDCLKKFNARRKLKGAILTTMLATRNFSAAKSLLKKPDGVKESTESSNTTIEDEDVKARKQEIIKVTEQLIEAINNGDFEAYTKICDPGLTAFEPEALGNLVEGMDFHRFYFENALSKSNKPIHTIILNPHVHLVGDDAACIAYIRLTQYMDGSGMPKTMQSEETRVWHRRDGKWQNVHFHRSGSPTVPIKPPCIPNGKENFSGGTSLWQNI
T5 sequence (P31749 whole entry): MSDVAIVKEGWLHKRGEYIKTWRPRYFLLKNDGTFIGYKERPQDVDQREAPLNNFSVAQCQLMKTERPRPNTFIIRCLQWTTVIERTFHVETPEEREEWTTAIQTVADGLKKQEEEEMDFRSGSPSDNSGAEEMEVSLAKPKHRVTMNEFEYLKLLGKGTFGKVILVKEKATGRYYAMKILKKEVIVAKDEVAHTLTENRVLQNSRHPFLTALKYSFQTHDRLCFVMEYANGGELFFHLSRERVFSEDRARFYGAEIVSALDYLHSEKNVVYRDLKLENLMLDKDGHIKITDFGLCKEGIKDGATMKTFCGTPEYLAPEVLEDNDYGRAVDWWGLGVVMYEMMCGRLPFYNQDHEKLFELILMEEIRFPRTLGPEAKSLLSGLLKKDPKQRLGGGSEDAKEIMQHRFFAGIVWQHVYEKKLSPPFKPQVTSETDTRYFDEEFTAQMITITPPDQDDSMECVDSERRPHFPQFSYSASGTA
T9 sequence (P37023 22-503): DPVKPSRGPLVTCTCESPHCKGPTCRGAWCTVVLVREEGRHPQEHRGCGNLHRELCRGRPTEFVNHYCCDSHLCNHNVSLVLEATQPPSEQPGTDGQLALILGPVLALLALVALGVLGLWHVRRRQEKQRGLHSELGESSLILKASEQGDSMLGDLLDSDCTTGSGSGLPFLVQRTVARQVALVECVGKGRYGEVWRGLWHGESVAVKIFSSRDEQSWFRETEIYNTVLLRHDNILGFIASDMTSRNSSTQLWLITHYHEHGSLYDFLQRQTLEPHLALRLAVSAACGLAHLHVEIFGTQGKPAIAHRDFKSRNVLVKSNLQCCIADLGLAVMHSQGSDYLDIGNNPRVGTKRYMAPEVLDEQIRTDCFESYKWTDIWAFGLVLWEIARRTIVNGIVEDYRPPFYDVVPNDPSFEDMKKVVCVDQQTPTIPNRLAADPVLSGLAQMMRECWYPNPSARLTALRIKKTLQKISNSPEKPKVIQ
T13 sequence (P22607 23-806): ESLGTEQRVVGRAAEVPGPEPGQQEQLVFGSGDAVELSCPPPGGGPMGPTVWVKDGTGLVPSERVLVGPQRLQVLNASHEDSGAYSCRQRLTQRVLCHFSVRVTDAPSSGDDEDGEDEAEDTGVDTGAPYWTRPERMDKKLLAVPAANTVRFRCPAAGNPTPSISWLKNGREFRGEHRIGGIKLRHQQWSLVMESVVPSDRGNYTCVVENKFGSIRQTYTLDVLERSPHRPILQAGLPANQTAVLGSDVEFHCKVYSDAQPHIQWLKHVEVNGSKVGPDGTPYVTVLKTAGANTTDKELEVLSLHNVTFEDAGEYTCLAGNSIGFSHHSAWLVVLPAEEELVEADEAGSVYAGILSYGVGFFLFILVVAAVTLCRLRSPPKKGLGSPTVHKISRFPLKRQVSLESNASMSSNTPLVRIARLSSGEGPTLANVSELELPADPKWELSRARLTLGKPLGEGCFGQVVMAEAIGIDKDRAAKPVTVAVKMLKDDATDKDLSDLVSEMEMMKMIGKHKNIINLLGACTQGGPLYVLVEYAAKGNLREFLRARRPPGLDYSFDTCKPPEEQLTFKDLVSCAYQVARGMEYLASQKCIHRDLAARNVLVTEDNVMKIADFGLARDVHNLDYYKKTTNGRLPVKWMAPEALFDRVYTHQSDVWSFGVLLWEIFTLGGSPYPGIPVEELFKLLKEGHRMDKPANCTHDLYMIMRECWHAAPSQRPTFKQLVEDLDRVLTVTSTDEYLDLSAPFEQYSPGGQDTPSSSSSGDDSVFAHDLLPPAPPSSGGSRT
T20 sequence (P16591 whole entry): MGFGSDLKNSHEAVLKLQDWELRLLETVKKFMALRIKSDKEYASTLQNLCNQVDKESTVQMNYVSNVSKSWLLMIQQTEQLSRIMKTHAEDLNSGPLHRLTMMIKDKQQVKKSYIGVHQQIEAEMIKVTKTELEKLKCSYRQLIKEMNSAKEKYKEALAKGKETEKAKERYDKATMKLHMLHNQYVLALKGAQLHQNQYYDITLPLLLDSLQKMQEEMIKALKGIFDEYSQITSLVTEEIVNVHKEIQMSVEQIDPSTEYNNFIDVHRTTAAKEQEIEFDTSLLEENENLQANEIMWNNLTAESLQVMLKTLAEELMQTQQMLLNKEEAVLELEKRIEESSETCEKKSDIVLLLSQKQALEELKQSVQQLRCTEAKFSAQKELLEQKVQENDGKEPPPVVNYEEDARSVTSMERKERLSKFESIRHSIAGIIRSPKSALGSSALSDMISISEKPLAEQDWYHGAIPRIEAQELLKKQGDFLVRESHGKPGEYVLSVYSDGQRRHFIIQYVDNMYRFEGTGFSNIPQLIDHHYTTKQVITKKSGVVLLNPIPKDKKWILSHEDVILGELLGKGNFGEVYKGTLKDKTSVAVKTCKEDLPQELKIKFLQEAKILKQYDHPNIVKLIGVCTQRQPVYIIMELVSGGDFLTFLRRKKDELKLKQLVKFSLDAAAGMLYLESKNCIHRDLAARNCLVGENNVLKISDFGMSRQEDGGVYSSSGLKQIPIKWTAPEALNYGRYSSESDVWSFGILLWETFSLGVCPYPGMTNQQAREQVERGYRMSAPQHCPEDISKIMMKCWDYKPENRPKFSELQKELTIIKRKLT
T15 sequence (Q96RR4 whole entry): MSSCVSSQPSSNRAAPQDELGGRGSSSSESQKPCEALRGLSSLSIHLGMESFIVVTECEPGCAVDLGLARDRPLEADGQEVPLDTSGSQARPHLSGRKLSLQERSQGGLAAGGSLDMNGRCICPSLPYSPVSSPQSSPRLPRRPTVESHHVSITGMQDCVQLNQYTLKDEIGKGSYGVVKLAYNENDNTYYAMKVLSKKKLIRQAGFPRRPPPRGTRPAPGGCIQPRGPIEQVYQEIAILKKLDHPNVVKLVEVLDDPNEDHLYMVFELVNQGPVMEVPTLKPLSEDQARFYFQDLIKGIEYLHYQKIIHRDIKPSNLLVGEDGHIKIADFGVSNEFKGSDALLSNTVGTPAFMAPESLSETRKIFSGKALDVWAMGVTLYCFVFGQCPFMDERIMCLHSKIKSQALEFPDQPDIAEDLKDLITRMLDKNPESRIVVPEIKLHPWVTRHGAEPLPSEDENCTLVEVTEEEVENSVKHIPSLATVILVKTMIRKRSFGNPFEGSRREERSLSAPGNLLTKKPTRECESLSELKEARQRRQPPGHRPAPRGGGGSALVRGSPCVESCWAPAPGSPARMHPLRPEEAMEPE
T14 sequence (Q14012 whole entry): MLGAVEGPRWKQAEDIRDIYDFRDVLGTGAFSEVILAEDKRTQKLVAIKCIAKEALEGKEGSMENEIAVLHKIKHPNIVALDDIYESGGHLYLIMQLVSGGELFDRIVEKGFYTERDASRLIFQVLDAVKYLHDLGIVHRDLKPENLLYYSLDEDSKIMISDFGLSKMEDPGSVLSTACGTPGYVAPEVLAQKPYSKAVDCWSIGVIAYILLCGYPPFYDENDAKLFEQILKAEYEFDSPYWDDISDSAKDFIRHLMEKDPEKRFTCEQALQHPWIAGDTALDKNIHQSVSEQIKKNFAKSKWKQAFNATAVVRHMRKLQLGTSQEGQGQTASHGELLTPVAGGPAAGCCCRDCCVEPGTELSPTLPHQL

| Compound | inhibition at 10 µM [1] | inhibition at 10 µM [2] | inhibition at 10 µM [3] | inhibition at 10 µM [4] | inhibition at 10 µM [5] | inhibition at 10 µM [6] | inhibition at 10 µM [7] | inhibition at 10 µM [8] | inhibition at 10 µM [9] | inhibition at 10 µM [10] | inhibition at 10 µM [11] | inhibition at 10 µM [12] | inhibition at 10 µM [13] | inhibition at 10 µM [14] | inhibition at 10 µM [15] | inhibition at 10 µM [16] | inhibition at 10 µM [17] | inhibition at 10 µM [18] | inhibition at 10 µM [19] | inhibition at 10 µM [20] |
| --- | --- | --- | --- | --- | --- | --- | --- | --- | --- | --- | --- | --- | --- | --- | --- | --- | --- | --- | --- | --- |
| C[C@@H](Oc1cc(-c2cnc3ccccn23)sc1C(N)=O)c1ccccc1Cl [Compound 8] | 0% | 84% | 0% | 0% | 0% | 0% | 0% | 0% | 0% | 0% | 66.5% | 0% | 0% | 0% | 81.2% | 0% | 0% | 0% | 0% | 0% |
| Cc1ccc(O)cc1N(C)c1ccnc(Nc2cccc(S(N)(=O)=O)c2)n1 [Compound 4] | 100% | 99.7% | 0% | 99.5% | 0% | 0% | 99.8% | 91.9% | 100% | 87.1% | 0% | 100% | 65.4% | 0% | 0% | 0% | 70% | 99.4% | 0% | 99.6% |
| COc1cc(Nc2nccc(-c3sc(N)nc3-c3cccc(NC(=O)c4c(F)cccc4F)c3)n2)cc(OC)c1OC [Compound 7] | 0% | 100% | 98.4% | 99.4% | 0% | 87.5% | 99.5% | 100% | 0% | 100% | 0% | 99.8% | 100% | 91.5% | 0% | 97.8% | 91.8% | 99% | 0% | 99% |
| CN1CCN(c2ccc(Nc3nccc(-c4cnn5ncccc45)n3)cc2C#N)CC1 [Compound 1] | 100% | 71.9% | 75.7% | 0% | 0% | 0% | 97.6% | 85.9% | 85% | 100% | 98.7% | 0% | 0% | 92.3% | 98% | 99.2% | 98.3% | 84.8% | 96.5% | 0% |
| Fc1cccc(COc2ccc(Nc3ncnc4c3CN(CCN3CCOCC3)CC4)cc2Cl)c1 [Compound 6] | 0% | 0% | 0% | 0% | 0% | 0% | 0% | 0% | 0% | 0% | 0% | 0% | 96.3% | 0% | 0% | 0% | 0% | 0% | 0% | 0% |
| Cc1ccc(O)cc1Nc1ccnc(Nc2cccc(C(N)=O)c2)n1 [Compound 3] | 99.8% | 99.2% | 0% | 99.9% | 0% | 0% | 99.6% | 86.4% | 99.7% | 76.7% | 0% | 100% | 0% | 0% | 0% | 0% | 0% | 99.6% | 0% | 95% |
| Clc1ccc(Nc2ncc(-c3ccccc3)s2)cc1 [Compound 10] | 0% | 0% | 0% | 0% | 0% | 0% | 0% | 0% | 0% | 0% | 0% | 0% | 0% | 0% | 0% | 0% | 0% | 0% | 0% | 0% |
| COc1ccc(Nc2nccc(-c3cnn4ncccc34)n2)cc1 [Compound 2] | 89.7% | 70.1% | 0% | 0% | 0% | 0% | 0% | 90.5% | 0% | 98.5% | 82.5% | 0% | 67.6% | 0% | 96.3% | 87.2% | 0% | 63.8% | 79.5% | 74.7% |
